Test results reported in patent publication US11180494B2, “Substituted amino acids as integrin inhibitors” (Pliant Therapeutics, Inc., priority 2018, dated 2021).

biological target: human integrin αvβ6 (Homo sapiens (Human), UniProt P06756+P18564); assay: Proximity-based integrin receptor binding assay (ALPHASCREEN) for inhibitor potency; conditions: inhibition of binding of TGF-b1 LAP to human integrin αvβ6; values given in ranges
Procedure, shortened: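 AlphaScreen: integrin, compound, TGF-b1 LAP, biotinylated anti-LAP antibody and acceptor beads incubated 2 hours, then streptavidin donor beads 30 minutes, at room temperature in 50 mM Tris-HCl pH 7.5, 0.1% BSA, 1 mM CaCl2 and MgCl2. Excitation 680 nm, emission 520-620 nm; IC50 by four-parameter logistic fit.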

human integrin αvβ6, sequence (P06756 31-992): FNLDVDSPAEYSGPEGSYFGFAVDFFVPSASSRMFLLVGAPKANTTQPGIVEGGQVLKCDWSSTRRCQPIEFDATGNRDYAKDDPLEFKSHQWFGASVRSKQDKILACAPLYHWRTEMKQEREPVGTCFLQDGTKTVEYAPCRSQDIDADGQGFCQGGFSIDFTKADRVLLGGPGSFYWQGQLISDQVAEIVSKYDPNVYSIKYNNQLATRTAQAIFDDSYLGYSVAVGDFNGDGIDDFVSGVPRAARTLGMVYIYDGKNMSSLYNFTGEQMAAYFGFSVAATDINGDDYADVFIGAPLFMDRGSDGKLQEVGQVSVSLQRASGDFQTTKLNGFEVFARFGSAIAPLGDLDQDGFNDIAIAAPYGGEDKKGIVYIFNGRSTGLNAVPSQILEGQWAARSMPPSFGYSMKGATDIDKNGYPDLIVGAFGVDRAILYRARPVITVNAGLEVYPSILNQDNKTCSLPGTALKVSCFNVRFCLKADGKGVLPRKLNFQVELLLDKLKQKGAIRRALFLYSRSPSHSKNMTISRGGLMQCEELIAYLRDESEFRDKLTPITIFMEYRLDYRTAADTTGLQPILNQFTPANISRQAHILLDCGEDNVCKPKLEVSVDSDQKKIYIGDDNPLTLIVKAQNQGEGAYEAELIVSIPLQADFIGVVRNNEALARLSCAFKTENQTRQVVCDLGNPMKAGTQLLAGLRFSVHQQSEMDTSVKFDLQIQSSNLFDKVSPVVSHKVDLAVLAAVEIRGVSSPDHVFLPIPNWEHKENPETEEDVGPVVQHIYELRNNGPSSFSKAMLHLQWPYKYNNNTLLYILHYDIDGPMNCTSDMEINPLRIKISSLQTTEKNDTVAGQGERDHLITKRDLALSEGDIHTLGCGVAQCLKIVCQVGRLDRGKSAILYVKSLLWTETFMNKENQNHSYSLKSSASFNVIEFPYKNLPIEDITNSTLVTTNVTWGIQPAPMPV
human integrin αvβ6, sequence (P18564 22-707): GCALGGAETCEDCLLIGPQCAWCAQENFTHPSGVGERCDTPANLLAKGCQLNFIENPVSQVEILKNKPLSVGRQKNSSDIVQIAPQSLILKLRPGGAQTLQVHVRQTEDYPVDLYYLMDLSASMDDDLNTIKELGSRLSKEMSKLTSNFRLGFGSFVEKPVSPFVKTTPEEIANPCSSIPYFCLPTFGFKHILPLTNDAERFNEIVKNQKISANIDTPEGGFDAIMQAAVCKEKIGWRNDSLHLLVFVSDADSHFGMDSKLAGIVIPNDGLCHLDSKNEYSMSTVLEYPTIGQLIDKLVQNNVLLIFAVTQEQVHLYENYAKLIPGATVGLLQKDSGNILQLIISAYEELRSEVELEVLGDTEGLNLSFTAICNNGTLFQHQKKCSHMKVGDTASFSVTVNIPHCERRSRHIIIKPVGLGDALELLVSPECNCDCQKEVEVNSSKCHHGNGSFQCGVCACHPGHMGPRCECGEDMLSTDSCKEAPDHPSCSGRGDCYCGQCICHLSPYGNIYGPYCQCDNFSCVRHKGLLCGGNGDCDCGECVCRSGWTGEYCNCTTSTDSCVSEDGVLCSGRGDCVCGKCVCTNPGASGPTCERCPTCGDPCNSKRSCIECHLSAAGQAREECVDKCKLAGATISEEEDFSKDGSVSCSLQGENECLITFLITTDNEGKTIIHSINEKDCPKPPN

Structure (SMILES)	IC50
CC(C)(C)OC(=O)N1CC(OC(=O)N[C@@H](CCO[C@H]2C[C@H](CCc3ccc4c(n3)NCCC4)C2)C(=O)O)C1 [Compound 147, N-(((1-(tert-butoxycarbonyl)azetidin-3-yl)oxy)carbonyl)-O-(trans-3-(2-(5,6,7,8-tetrahydro-1,8-naphthyridin-2-yl)ethyl)cyclobutyl)homoserine]	< 0.05 µM
O=C(N[C@@H](CCO[C@H]1C[C@H](CCc2ccc3c(n2)NCCC3)C1)C(=O)O)O[C@H]1CC[C@H](c2ccccc2)CC1 [Compound 148, N-(((trans-4-phenylcyclohexyl)oxy)carbonyl)-O-(trans-3-(2-(5,6,7,8-tetrahydro-1,8-naphthyridin-2-yl)ethyl)cyclobutyl)homoserine]	0.25 to 1 µM
O=C(N[C@@H](CCO[C@H]1C[C@H](CCc2ccc3c(n2)NCCC3)C1)C(=O)O)O[C@H]1CC[C@@H](c2ccccc2)CC1 [Compound 149, N-(((cis-4-phenylcyclohexyl)oxy)carbonyl)-O-(trans-3-(2-(5,6,7,8-tetrahydro-1,8-naphthyridin-2-yl)ethyl)cyclobutyl)homoserine]	0.05 to 0.25 µM
CC(=O)N1CC(OC(=O)N[C@@H](CCO[C@H]2C[C@H](CCc3ccc4c(n3)NCCC4)C2)C(=O)O)C1 [Compound 150, N-(((1-acetylazetidin-3-yl)oxy)carbonyl)-O-(trans-3-(2-(5,6,7,8-tetrahydro-1,8-naphthyridin-2-yl)ethyl)cyclobutyl)homoserine]	0.25 to 1 µM
CC(=O)NC[C@H](C)OC(=O)N[C@@H](CCO[C@H]1C[C@H](CCc2ccc3c(n2)NCCC3)C1)C(=O)O [Compound 151, N—((((S)-1-acetamidopropan-2-yl)oxy)carbonyl)-O-(trans-3-(2-(5,6,7,8-tetrahydro-1,8-naphthyridin-2-yl)ethyl)cyclobutyl)homoserine]	< 0.05 µM
C[C@@H](CNC(=O)OC(C)(C)C)OC(=O)N[C@@H](CCO[C@H]1C[C@H](CCc2ccc3c(n2)NCCC3)C1)C(=O)O [Compound 152, N—((((S)-1-((tert-butoxycarbonyl)amino)propan-2-yl)oxy)carbonyl)-O-(trans-3-(2-(5,6,7,8-tetrahydro-1,8-naphthyridin-2-yl)ethyl)cyclobutyl)homoserine]	< 0.05 µM
C[C@H](CNC(=O)OC(C)(C)C)OC(=O)N[C@@H](CCO[C@H]1C[C@H](CCc2ccc3c(n2)NCCC3)C1)C(=O)O [Compound 153, N—((((R)-1-((tert-butoxycarbonyl)amino)propan-2-yl)oxy)carbonyl)-O-(trans-3-(2-(5,6,7,8-tetrahydro-1,8-naphthyridin-2-yl)ethyl)cyclobutyl)homoserine]	< 0.05 µM
CC(=O)NC[C@@H](C)OC(=O)N[C@@H](CCO[C@H]1C[C@H](CCc2ccc3c(n2)NCCC3)C1)C(=O)O [Compound 154, N—((((R)-1-acetamidopropan-2-yl)oxy)carbonyl)-O-(trans-3-(2-(5,6,7,8-tetrahydro-1,8-naphthyridin-2-yl)ethyl)cyclobutyl)homoserine]	0.25 to 1 µM
CC(C)(C)OC(=O)N1CC(OC(=O)N[C@@H](CCO[C@H]2C[C@H](CCc3ccc4c(n3)NCCC4)C2)C(=O)O)(c2cccc(Cl)c2)C1 [Compound 157, N-(((1-(tert-butoxycarbonyl)-3-(3-chlorophenyl)azetidin-3-yl)oxy)carbonyl)-O-(trans-3-(2-(5,6,7,8-tetrahydro-1,8-naphthyridin-2-yl)ethyl)cyclobutyl)homoserine]	< 0.05 µM
CC(C)c1ccc(C2(OC(=O)N[C@@H](CCO[C@H]3C[C@H](CCc4ccc5c(n4)NCCC5)C3)C(=O)O)CN(C(=O)OC(C)(C)C)C2)cc1 [Compound 158, N-(((1-(tert-butoxycarbonyl)-3-(4-isopropylphenyl)azetidin-3-yl)oxy)carbonyl)-O-(trans-3-(2-(5,6,7,8-tetrahydro-1,8-naphthyridin-2-yl)ethyl)cyclobutyl)homoserine]	< 0.05 µM
